# Calls of active or inactive are those of the source. No cut-off for these calls is given here.
# Tests used:
# [1] = molecular target: NAD-dependent protein deacylase sirtuin-5, mitochondrial (Homo sapiens) (UniProt Q9NXA8); experiment: (§1) Substrate activity at SIRT5 (unknown origin) assessed as compound-NAD covalent intermediate formation by measuring 3-((3aR,5R,6R,6aR)-5-((((((2R,3S,4R,5R)-5-(6-amino-9H-purin-9-yl)-3,4-dihydroxytetrahydrofuran-2-yl)methoxy)(hydroxy)phosphoryloxy)(hydroxy)phosphoryloxy)methyl)-2-((S)-5-(benzyloxycarbonylamino)-6-oxo-6-(phenylamino)hexylamino)-6-hydroxytetrahydrofuro[2,3-d][1,3]oxathiol-2-ylamino)propanoic acid level measured after 5 hrs by liquid chromatography-mass spectrometry method
# Sequence of NAD-dependent protein deacylase sirtuin-5, mitochondrial (Homo sapiens) (Q9NXA8 37-310 limits assumed): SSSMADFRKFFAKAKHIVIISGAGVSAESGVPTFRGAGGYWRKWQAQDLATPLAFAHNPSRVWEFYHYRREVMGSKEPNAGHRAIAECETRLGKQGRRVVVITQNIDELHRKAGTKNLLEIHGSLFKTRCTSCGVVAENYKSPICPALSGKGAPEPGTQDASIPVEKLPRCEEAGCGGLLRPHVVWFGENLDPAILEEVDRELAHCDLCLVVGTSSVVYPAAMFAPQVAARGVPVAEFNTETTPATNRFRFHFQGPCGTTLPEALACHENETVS
# [2] = molecular target: NAD-dependent protein deacylase sirtuin-5, mitochondrial (Homo sapiens) (UniProt Q9NXA8); experiment: Mechanism based inhibition of SIRT5 (unknown origin) incubated in presence of NAD for 15 mins by liquid chromatography-mass spectrometry method
# [3] = molecular target: NAD-dependent protein deacylase sirtuin-5, mitochondrial (Homo sapiens) (UniProt Q9NXA8); experiment: Substrate activity at SIRT5 (unknown origin) assessed as compound-NAD covalent intermediate formation by measuring parent compound consumption measured after 18 hrs by liquid chromatography-mass spectrometry method
# [4] = molecular target: NAD-dependent protein deacylase sirtuin-5, mitochondrial (Homo sapiens) (UniProt Q9NXA8); experiment: as §1, with “15 mins” for “5 hrs”
# [5] = molecular target: NAD-dependent protein deacylase sirtuin-5, mitochondrial (Homo sapiens) (UniProt Q9NXA8); experiment: Substrate activity at SIRT5 (unknown origin) assessed as compound-NAD covalent intermediate formation by measuring (S)-3,11-dioxo-1-phenyl-5-(phenylcarbamoyl)-2-oxa-4,10,12-triazapentadecan-15-oic acid level measured after 18 hrs by liquid chromatography-mass spectrometry method
# [6] = molecular target: NAD-dependent protein deacylase sirtuin-5, mitochondrial (Homo sapiens) (UniProt Q9NXA8); experiment: (§2) Substrate activity at SIRT5 (unknown origin) assessed as compound-NAD covalent intermediate formation by measuring 2-((2R,3R,4R,5R)-5-((((((2R,3S,4R,5R)-5-(6-amino-9H-purin-9-yl)-3,4-dihydroxytetrahydrofuran-2-yl)methoxy)(hydroxy)phosphoryloxy)(hydroxy)phosphoryloxy)methyl)-4-hydroxy-2-mercaptotetrahydrofuran-3-yl)-1-((S)-5-(benzyloxycarbonylamino)-6-oxo-6-(phenylamino)hexyl)-3-(2-carboxyethyl)isouronium level measured after 7 hrs by liquid chromatography-mass spectrometry method
# [7] = molecular target: NAD-dependent protein deacylase sirtuin-5, mitochondrial (Homo sapiens) (UniProt Q9NXA8); experiment: as §2, with “15 mins” for “7 hrs”
# [8] = molecular target: T1, NAD-dependent protein deacetylase sirtuin-1 (Homo sapiens) (UniProt Q96EB6); experiment: Inhibition of SIRT1 (unknown origin) assessed as reduction in enzyme-catalyzed desuccinylation reaction at 256 uM
# T1 sequence (whole entry): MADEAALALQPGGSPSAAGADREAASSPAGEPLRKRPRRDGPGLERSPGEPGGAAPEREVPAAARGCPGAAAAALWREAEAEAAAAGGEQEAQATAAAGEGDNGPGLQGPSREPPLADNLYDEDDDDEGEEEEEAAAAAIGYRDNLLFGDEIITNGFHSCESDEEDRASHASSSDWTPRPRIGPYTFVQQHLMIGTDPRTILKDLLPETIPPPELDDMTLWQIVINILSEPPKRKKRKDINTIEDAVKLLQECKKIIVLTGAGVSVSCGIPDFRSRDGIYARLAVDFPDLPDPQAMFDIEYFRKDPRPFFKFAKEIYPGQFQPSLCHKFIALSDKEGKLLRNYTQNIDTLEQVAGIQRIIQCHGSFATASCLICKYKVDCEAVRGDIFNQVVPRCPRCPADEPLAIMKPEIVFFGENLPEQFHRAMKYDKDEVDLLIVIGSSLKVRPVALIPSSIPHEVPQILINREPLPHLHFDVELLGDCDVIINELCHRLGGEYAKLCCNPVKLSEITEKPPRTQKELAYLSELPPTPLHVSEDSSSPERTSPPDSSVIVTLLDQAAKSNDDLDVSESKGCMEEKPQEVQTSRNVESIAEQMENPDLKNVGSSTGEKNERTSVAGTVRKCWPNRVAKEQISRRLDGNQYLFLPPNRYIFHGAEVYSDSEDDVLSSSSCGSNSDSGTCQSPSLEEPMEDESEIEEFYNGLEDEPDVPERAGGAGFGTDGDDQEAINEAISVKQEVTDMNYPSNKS
# [9] = molecular target: NAD-dependent protein deacylase sirtuin-5, mitochondrial (Homo sapiens) (UniProt Q9NXA8); experiment: (§3) Substrate activity at SIRT5 (unknown origin) assessed as compound-NAD covalent intermediate formation by measuring 2-((2R,3R,4S,5R)-5-((((((2R,3S,4R,5R)-5-(6-amino-9H-purin-9-yl)-3,4-dihydroxytetrahydrofuran-2-yl)methoxy)(hydroxy)phosphoryloxy)(hydroxy)phosphoryloxy)methyl)-3,4-dihydroxytetrahydrofuran-2-yl)-1-((S)-5-(benzyloxycarbonylamino)-6-oxo-6-(phenylamino)hexyl)-3-(2-carboxyethyl)isothiouronium level measured after 5 hrs by liquid chromatography-mass spectrometry method
# [10] = molecular target: NAD-dependent protein deacylase sirtuin-5, mitochondrial (Homo sapiens) (UniProt Q9NXA8); experiment: as §3, with “15 mins” for “5 hrs”
# [11] = molecular target: T2, NAD-dependent protein deacetylase sirtuin-2 (Homo sapiens) (UniProt Q8IXJ6); experiment: Inhibition of SIRT2 (unknown origin) assessed as reduction in enzyme-catalyzed desuccinylation reaction at 256 uM
# T2 sequence (whole entry): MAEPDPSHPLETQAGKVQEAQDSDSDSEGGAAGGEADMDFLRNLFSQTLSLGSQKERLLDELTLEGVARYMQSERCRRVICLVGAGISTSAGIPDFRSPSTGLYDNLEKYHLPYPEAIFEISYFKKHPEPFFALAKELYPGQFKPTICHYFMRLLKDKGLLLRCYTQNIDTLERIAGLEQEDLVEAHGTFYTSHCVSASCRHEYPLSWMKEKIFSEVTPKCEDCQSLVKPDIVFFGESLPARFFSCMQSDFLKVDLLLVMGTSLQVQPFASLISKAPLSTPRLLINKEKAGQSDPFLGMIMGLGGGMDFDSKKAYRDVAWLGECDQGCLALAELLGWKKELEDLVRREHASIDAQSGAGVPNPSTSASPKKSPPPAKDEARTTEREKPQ
# [12] = molecular target: NAD-dependent protein deacylase sirtuin-5, mitochondrial (Homo sapiens) (UniProt Q9NXA8); experiment: Inhibition of SIRT5 (unknown origin) assessed as reduction in enzyme-catalyzed desuccinylation reaction at 200 uM
# [13] = system: MDA-MB-468; experiment: Inhibition of foci formation in human MDA-MB-468 cells at 10 to 100 uM; assay type: functional, cell-based
# [14] = molecular target: NAD-dependent protein deacylase sirtuin-5, mitochondrial (Homo sapiens) (UniProt Q9NXA8); experiment: Inhibition of SIRT5 in human MCF7 cells assessed as increase in protein succinylation level at 100 uM after 48 to 72 hrs by Western blot analysis; assay type: cell-based
# [15] = system: MCF7; experiment: Inhibition of foci formation in human MCF7 cells at 10 to 100 uM; assay type: functional, cell-based
# [16] = molecular target: T3, NAD-dependent protein deacetylase sirtuin-3, mitochondrial (Homo sapiens, UniProt Q9NTG7); experiment: Inhibition of SIRT3 (unknown origin) assessed as reduction in enzyme-catalyzed desuccinylation reaction
# T3 sequence (Q9NTG7 whole entry): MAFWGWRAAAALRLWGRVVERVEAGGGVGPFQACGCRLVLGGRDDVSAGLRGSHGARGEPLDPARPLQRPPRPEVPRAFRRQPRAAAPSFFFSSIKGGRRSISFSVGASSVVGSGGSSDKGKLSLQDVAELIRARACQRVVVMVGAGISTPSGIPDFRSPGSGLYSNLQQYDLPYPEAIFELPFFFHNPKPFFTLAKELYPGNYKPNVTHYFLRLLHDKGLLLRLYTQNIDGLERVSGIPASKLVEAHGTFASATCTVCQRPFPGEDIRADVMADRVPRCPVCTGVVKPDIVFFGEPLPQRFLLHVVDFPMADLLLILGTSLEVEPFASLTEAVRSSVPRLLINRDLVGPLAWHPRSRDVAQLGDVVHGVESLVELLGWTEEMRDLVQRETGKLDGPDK
# [17] = molecular target: NAD-dependent protein deacylase sirtuin-6 (Homo sapiens, UniProt Q8N6T7); experiment: Inhibition of SIRT6 (unknown origin) assessed as reduction in enzyme-catalyzed desuccinylation reaction
# Sequence of NAD-dependent protein deacylase sirtuin-6 (Q8N6T7 whole entry): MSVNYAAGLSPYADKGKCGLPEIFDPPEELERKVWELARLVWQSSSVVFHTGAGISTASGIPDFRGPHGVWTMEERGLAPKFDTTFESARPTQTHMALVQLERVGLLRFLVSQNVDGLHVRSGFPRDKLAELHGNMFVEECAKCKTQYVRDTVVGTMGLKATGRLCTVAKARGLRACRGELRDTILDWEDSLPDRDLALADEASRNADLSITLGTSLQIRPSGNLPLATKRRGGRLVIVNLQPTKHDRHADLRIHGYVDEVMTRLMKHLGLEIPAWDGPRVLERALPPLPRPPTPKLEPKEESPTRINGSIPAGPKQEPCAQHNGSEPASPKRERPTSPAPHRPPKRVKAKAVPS
# [18] = system: MDA-MB-231; experiment: Inhibition of foci formation in human MDA-MB-231 cells at 10 to 100 uM; assay type: functional, cell-based
# [19] = molecular target: NAD-dependent protein deacylase sirtuin-5, mitochondrial (Homo sapiens) (UniProt Q9NXA8); experiment: Inhibition of SIRT5 in human HeLa cells assessed as increase in protein succinylation level at 100 uM after 24 to 48 hrs by Western blot analysis; assay type: cell-based
# [20] = system: MCF7; experiment: Growth inhibition of human MCF7 cells at 25 uM incubated for 10 days by crystal violet staining based assay; assay type: functional, cell-based
# [21] = molecular target: T4, NAD-dependent protein deacetylase sirtuin-2 (Homo sapiens, UniProt Q8IXJ6); experiment: Inhibition of SIRT2 (unknown origin) assessed as reduction in enzyme-catalyzed desuccinylation reaction
# T4 sequence (Q8IXJ6 whole entry): T2 sequence (whole entry)
# [22] = molecular target: T5, NAD-dependent protein deacetylase sirtuin-1 (Homo sapiens, UniProt Q96EB6); experiment: Inhibition of SIRT1 (unknown origin) assessed as reduction in enzyme-catalyzed desuccinylation reaction
# T5 sequence (Q96EB6 whole entry): T1 sequence (whole entry)
smiles,measurement,setting,value
O=C(O)CC(=S)NCCCC[C@H](NC(=O)OCc1ccccc1)C(=O)Nc1ccccc1,Activity,[1],Active
same,inhibition,[2],Active
same,Activity,[3],Active
same,Activity,[4],Active
same,Activity,[5],Active
same,Activity,[6],Active
same,Activity,[7],Active
same,inhibition,[8],inactive
same,Activity,[9],Active
same,Activity,[10],Active
same,inhibition,[11],inactive
CCOC(=O)CCNC(=S)NCCCC[C@H](NC(=O)OCc1ccccc1)C(=O)Nc1cccc(O)c1,inhibition,[12],20%
same,inhibition,[13],Dose-dependent effect
same,inhibition,[14],Active
same,inhibition,[15],Dose-dependent effect
same,IC50,[16],Not Active
same,IC50,[17],Not Active
same,inhibition,[18],Dose-dependent effect
CCOC(=O)CCNC(=S)NCCCC[C@H](NC(=O)OCc1ccccc1)C(=O)NC1CCSc2ccccc21 (some centres not stated),inhibition,[19],Active
same,growth inhibition (GI),[20],Active
O=C(O)CCC(=S)NCCCC[C@H](NC(=O)OCc1ccccc1)C(=O)Nc1ccccc1,inhibition,[8],inactive
same,inhibition,[11],inactive
O=C(O)CCNC(=S)NCCCC[C@H](NC(=O)OCc1ccccc1)C(=O)NC1CCSc2ccccc21 (some centres not stated),IC50,[16],Not Active
same,IC50,[21],Not Active
same,IC50,[22],Not Active
same,growth inhibition (GI),[20],inactive
O=C(O)CCNC(=S)NCCCC[C@H](NC(=O)OCc1ccccc1)C(=O)Nc1cccc(O)c1,IC50,[16],Not Active
same,IC50,[21],Not Active
same,IC50,[22],Not Active
O=C(O)CCCC(=S)NCCCC[C@H](NC(=O)OCc1ccccc1)C(=O)Nc1ccccc1,Activity,[3],inactive
same,inhibition,[8],inactive
same,inhibition,[11],inactive

# From ChEMBL document CHEMBL4256946, “Thiourea compounds and their use as inhibitors of sirt2 or sirt5” (2016)
